The text below walks through data of the OPERA property sets (Mansouri et al. 2018).

With `CNc1cnccn1`, the logP (usually the decadic logarithm of the partition coefficient of the neutral form, usually between octanol and water) came to 0.56.
With `N#Cc1cnccn1`, the logP was -0.01.
The compound `COc1ccccn1` came in with a logP of 1.34.
The compound `CCOc1cnccn1` showed a logP of 1.28.
With `CSc1cnccn1`, the logP was 1.17.
`Clc1cnccn1`: the logP was found to be 0.7.
The compound `CNc1ccccn1` came in with a logP of 1.12.
For `Fc1ccccn1`, the logP was 0.84.
Under `CN(C)C(=O)c1ccccn1` stands -0.45; under `CSc1ccccn1`, 1.71.
For `CCCOc1ccccn1` the value was 2.38.
For `CN(C)c1ccccn1` the value was 1.65; for `CCOC(=O)c1cnccn1`, 0.28; for `CC(=O)c1cnccn1`, 0.2.
As to `Fc1cnccn1`, the log partition coefficient (logP) was 0.29.
`CCOc1ccccn1` came in with a logP of 1.81.
Turning to `CCCOc1cnccn1`, the logP stood at 1.84.
Regarding `COC(=O)c1cnccn1`, the logP was -0.23.
As to `COc1cnccn1`, the logP was 0.73.
For the compound `CC(=O)Nc1cnccn1`, the logP is -0.03.
Consider `CN(C)C(=O)c1cnccn1`, for which the logP was -0.8.
Consider `CN(C)c1cnccn1`, for which the logP was determined as 0.93.
Compound `CCc1cnccn1` registered a logP of 0.69.
